Measured values taken from PubChem BioAssay (NCI).
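Test compounds were applied to cells in 96-well plates for 48 hours at 5 doses. TGI marks complete inhibition of growth.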

What was measured:
Test in all cases: NCI tumour cell line growth inhibition, 48 h
786-0 renal = system: 786-0 renal
A498 renal = system: A498 renal
A549 NSCLC = system: A549 NSCLC
ACHN renal = system: ACHN renal
BT-549 breast = system: BT-549 breast
CCRF-CEM leukemia = system: CCRF-CEM leukemia
COLO 205 colon = system: COLO 205 colon
DU-145 prostate = system: DU-145 prostate
EKVX NSCLC = system: EKVX NSCLC
HCC-2998 colon = system: HCC-2998 colon
HCT-116 colon = system: HCT-116 colon
HCT-15 colon = system: HCT-15 colon
HL-60(TB) leukemia = system: HL-60(TB) leukemia
HOP-62 NSCLC = system: HOP-62 NSCLC
HOP-92 NSCLC = system: HOP-92 NSCLC
HS 578T breast = system: HS 578T breast
HT29 colon = system: HT29 colon
IGROV1 ovarian = system: IGROV1 ovarian
K-562 leukemia = system: K-562 leukemia
KM12 colon = system: KM12 colon
LOX IMVI melanoma = system: LOX IMVI melanoma
MALME-3M melanoma = system: MALME-3M melanoma
MCF7 breast = system: MCF7 breast
MDA-MB-231 breast = system: MDA-MB-231 breast
MDA-MB-435 = system: MDA-MB-435
MOLT-4 leukemia = system: MOLT-4 leukemia
NCI-H226 lung = system: NCI-H226 lung
NCI-H23 lung = system: NCI-H23 lung
NCI-H460 lung = system: NCI-H460 lung
NCI-H522 lung = system: NCI-H522 lung
NCI/ADR-RES ovarian = system: NCI/ADR-RES ovarian
OVCAR-3 ovarian = system: OVCAR-3 ovarian
OVCAR-4 ovarian = system: OVCAR-4 ovarian
OVCAR-8 ovarian = system: OVCAR-8 ovarian
PC-3 prostate = system: PC-3 prostate
RPMI-8226 leukemia = system: RPMI-8226 leukemia
RXF 393 renal = system: RXF 393 renal
SF-268 CNS = system: SF-268 CNS
SF-295 CNS = system: SF-295 CNS
SF-539 CNS = system: SF-539 CNS
SK-MEL-28 melanoma = system: SK-MEL-28 melanoma
SK-MEL-5 melanoma = system: SK-MEL-5 melanoma
SN12C renal = system: SN12C renal
SNB-19 CNS = system: SNB-19 CNS
SNB-75 CNS = system: SNB-75 CNS
SR leukemia = system: SR leukemia
SW-620 colon = system: SW-620 colon
T-47D breast = system: T-47D breast
TK-10 renal = system: TK-10 renal
U251 CNS = system: U251 CNS
UACC-257 melanoma = system: UACC-257 melanoma
UACC-62 melanoma = system: UACC-62 melanoma
UO-31 renal = system: UO-31 renal

C/C(Nc1ccc(Cl)cc1Cl)=C1/CCOC1=O
TGI (786-0 renal): > 100 µM | TGI (A498 renal): > 100 µM | TGI (A549 NSCLC): > 100 µM | TGI (ACHN renal): > 100 µM | TGI (BT-549 breast): 63.3 µM | TGI (CCRF-CEM leukemia): > 100 µM | TGI (COLO 205 colon): > 100 µM | TGI (DU-145 prostate): > 100 µM | TGI (EKVX NSCLC): 73.9 µM | TGI (HCC-2998 colon): > 100 µM | TGI (HCT-116 colon): > 100 µM | TGI (HCT-15 colon): > 100 µM | TGI (HL-60(TB) leukemia): > 100 µM | TGI (HOP-62 NSCLC): 70.8 µM | TGI (HOP-92 NSCLC): 51.8 µM | TGI (HS 578T breast): 73.8 µM | TGI (HT29 colon): > 100 µM | TGI (IGROV1 ovarian): > 100 µM | TGI (K-562 leukemia): > 100 µM | TGI (KM12 colon): > 100 µM | TGI (LOX IMVI melanoma): > 100 µM | TGI (MALME-3M melanoma): > 100 µM | TGI (MCF7 breast): > 100 µM | TGI (MDA-MB-231 breast): 46.3 µM | TGI (MDA-MB-435): > 100 µM | TGI (MOLT-4 leukemia): > 100 µM | TGI (NCI-H226 lung): > 100 µM | TGI (NCI-H23 lung): > 100 µM | TGI (NCI-H460 lung): > 100 µM | TGI (NCI-H522 lung): > 100 µM | TGI (NCI/ADR-RES ovarian): > 100 µM | TGI (OVCAR-3 ovarian): > 100 µM | TGI (OVCAR-4 ovarian): > 100 µM | TGI (OVCAR-8 ovarian): > 100 µM | TGI (PC-3 prostate): > 100 µM | TGI (RPMI-8226 leukemia): > 100 µM | TGI (RXF 393 renal): 39.8 µM | TGI (SF-268 CNS): 92.8 µM | TGI (SF-295 CNS): 54 µM | TGI (SF-539 CNS): 89.9 µM | TGI (SK-MEL-28 melanoma): > 100 µM | TGI (SK-MEL-5 melanoma): > 100 µM | TGI (SN12C renal): > 100 µM | TGI (SNB-19 CNS): 67.1 µM | TGI (SNB-75 CNS): 66.1 µM | TGI (SR leukemia): > 100 µM | TGI (SW-620 colon): > 100 µM | TGI (T-47D breast): > 100 µM | TGI (TK-10 renal): > 100 µM | TGI (U251 CNS): 66.5 µM | TGI (UACC-257 melanoma): > 100 µM | TGI (UACC-62 melanoma): > 100 µM | TGI (UO-31 renal): > 100 µM
